Where two headings read alike, the source gives them in different places.

For data set [1], the system named is Wnt/β-catenin signaling. To be noted: in vitro; cited from earlier work.
Data set [2] has as its system Wnt/β-catenin signaling. To be noted: role: inhibitor; cited from earlier work.
The test system of data set [3] is Wnt/β-catenin signaling. Put plainly: Pharmacological inhibition of Wnt/β-catenin signaling, barrier integrity by impedance. It counts as cell-based, human. Particulars: for interference with basal barrier integrity: no combination treatment, titrated inhibitor; for reduction of the effect of cAMP+Ro+LiCl+A83-01 on barrier integrity (impedance): role: inhibitor, ICG-001 5 μM or XAV 939 1 μM, co-treatment 48 h. The protocol: (§1) Real-time, label-free measurement of barrier integrity was performed in 96-well plates with integrated gold electrodes (E-plate 96: Agilent, cat #300600910) using an xCELLigence RTCA SP device (Agilent). Plates were coated with 0.2% gelatin (Sigma-Aldrich, cat #G2500) and the cell-free background was measured in culture medium for each well. Then, ECs were seeded in the plates at a density of 6×10^3 cells/well and grown until fully confluent, while receiving 50% PC-conditioned medium to acquire brain-like properties. […] For combinatorial treatments, the following concentrations were used: cAMP 250 µM, Ro […], Wnt-3a 300 ng/mL, Wnt-7a 300 ng/mL, LiCl 3 mM, RepSox 10 μM and A83-01 3 μM. For all further experiments on human ECs, combination of cAMP+Ro+LiCl+A83-01 treatment consisted of 250 μM cAMP+17.5 μM Ro+3 mM LiCl+3 μM A83-01. The readout of impedance measurements is cell index, a dimensionless parameter which correlates with the strength of cell-cell contacts and cell adhesion. Cell index was defined as Zn-Z0, where Zn is the impedance at time point n and Zo is the impedance of the cell-free background in each well. Cell index values were normalized to the last time point before treatment.
Wnt/β-catenin signaling was blocked at two different points using inhibitors ICG-001 (MedChemExpress, cat #HY-14428) and XAV 939 (MedChemExpress, cat #HY-15147). For the measurement of barrier integrity by impedance. ECs were cultured as described above. Confluent monolayers were treated with ICG-001 […] for 48 h at 37 °C, and impedance was measured at 10 kHz every 5 min using the xCELLigence RTCA SP device (Agilent) as described above. […] For the measurement of TEER and tracer permeability, EC-PC co-cultures were assembled and maintained as described above. On day 4, the luminal (blood) side of the model was incubated with the combination of cAMP+Ro+LiC+A83-01 or control medium supplemented with either 5 μM ICG-001 or 1 μM XAV 939 for 48 h at 37 °C. TEER and tracer permeability were then measured and calculated as described above.

A further data set has as its system central nervous system. Particulars: route of penetration across the BBB; cited from earlier work.
For data set [4], the system named is EC-PC co-culture BBB model. Put plainly: Penetration of small molecule drugs across the BBB co-culture model. Particulars: 1 μM drug; cAMP+Ro+LiCl+A83-01 vs control. Here is the method:
Assembly, maintenance and treatment of co-cultures were performed as described above. […] In B-A direction, samples from both compartments were collected at 60 min. In A-B direction, inserts were transferred to a new well with fresh buffer at 30 min, then at the end of the assay samples were collected from the donor (0-60 min) and acceptor compartments (0-30 min, 30-60 min). […] Drug concentrations were determined by standard calibration curves.
where CA is the concentration measured in the acceptor compartment, VA is the volume of the acceptor compartment (1.5 mL) and CD is the treatment concentration in the donor compartment at a given timepoint. […] Papp was then calculated as: […]
where A is the surface area of the insert available for permeability (1.12 cm^2). Efflux ratio was calculated by dividing Papp values in B-A direction by Papp values in A-B direction.
where nA.30, nA.60 and nD.60 are the amounts of substance (pmol) in the accentor compartment at 30 and 60 min as well as the donor compartment at 60 min, respectively, and nT is the amount of substance (pmol) present at the treatment solution at 0 min. In vitro Kp,uu,brain was then calculated as: […]
where CT is the concentration of a drug in the treatment solution at 0 min, CD is the concentration in the donor compartment at 60 min and R is recovery. Calculation of Pearson r^2 and Spearman r coefficients using data referenced in the legend FIG. 5d was performed in GraphPad Prism software (version 5.0).

Data set [5] has as its system human stem cell-derived ECs. Briefly: Impedance-based measurement of barrier integrity, human ECs. It counts as cell-based. The protocol: as §1
The subject of data set [6] is human stem cell-derived brain-like ECs. Briefly: Albumin internalization in ECs. It counts as cell-based. To be noted: MβCD 1 mM, 1 h. The protocol:
ECs were cultured in 50% PC-conditioned medium on 35 mm glass bottom Petri dishes (Greiner Bio-One, cat #627860) coated with collagen IV (Sigma-Aldrich, cat #C5533, 100 ng/mL) and fibronectin (Sigma-Aldrich, cat #F1141, 25 μg/mL) at a seeding density of 5×10^4 cells/cm^2. […] After that, culture medium was removed and cells were incubated with Texas Red-conjugated BSA (TR-albumin; Invitrogen, cat #A23017, 5 μg/mL) dissolved in control medium for 2 h at 37 °C. For the final 20 minutes of incubation, Hoechst 33342 (Thermo Fisher, cat #H1399,2 μg/mL) was added to cells to counterstain nuclei. Cultures were washed twice in Ringer-HEPES supplemented with 1% FBS and live-cell imaging was performed immediately in the same buffer using a Leica TCS SP5 AOBS confocal laser scanning microscope equipped with a HCX PL APO 63× oil (NA=1.4) objective with the same parameters as described above. After live-cell imaging, cells were fixed with 3% paraformaldehyde for 15 min at room temperature and immunostained for caveolin-1 exactly as described above. […] Finally, ECs were lysed with 1% Triton X 100 in Milli-Q water and the fluorescent signal of internalized TR-albumin was quantified with a Fluorolog 3 spectrofluorometer (Horiba Jobin Yvon) at 592 nm excitation and 612 nm emission wavelengths. Concentrations of internalized TR-albumin were calculated using a standard calibration curve. […]

Another data set has as its system stem cell-derived ECs. Particulars: cited from earlier work.
Data set [7] relates to human endothelial cell and brain pericyte co-culture BBB model. Briefly: Early experiment: cAMP alone or with PDE4 inhibitor, normalized cell index. It counts as cell-based. To be noted: PDE4 inhibitor together with cAMP; in particular within first 24 hours; data not shown.
The test system of the next data set is EC monolayers. To be noted: alone, especially with astrocyte-conditioned medium; cited from earlier work.

With `Cc1c[nH]c(-c2cnc(NCCNc3ccc(C#N)cn3)nc2-c2ccc(Cl)cc2Cl)n1` [CHIR99021], the “induction of barrier properties” value in the data set with Wnt/β-catenin signaling [1] is “induce a subset of barrier properties”.
With `Oc1nc(-c2ccc(C(F)(F)F)cc2)nc2c1CSCC2` [XAV 939], the “point of inhibition of Wnt signaling” value with Wnt/β-catenin signaling [2] was “blocks the pathway upstream of nuclear translocation”. Moreover, in the data set on Wnt/β-catenin signaling [3], the “interference with basal barrier integrity” value is on record as “do not interfere with basal barrier integrity” and the “reduction of the effect of cAMP+Ro+LiCl+A83-01 on barrier integrity (impedance)” value is listed as “more potently reduced the effect of the combination of cAMP+Ro+LiCl+A83-01, almost to the level of cAMP+Ro treatment”.
On to `CN(C)C(=O)C(CCN1CCC(O)(c2ccc(Cl)cc2)CC1)(c1ccccc1)c1ccccc1` [Loperamide], for which, in the data set on central nervous system, the BBB transport entry is given as “Passive hydrophilic, efflux”. In [4], the “efflux ratio, change on combination treatment” value (shortened to “efflux ratio, change”) was “elevated” and the “permeability (Papp), blood-to-brain (A-B), change on combination treatment” value (“permeability … change on combination treatment” below) is recorded as “lower permeability”.
Turning to `[Cl-].[Li+]` [LiCl, lithium chloride], the “induction of barrier properties” value with Wnt/β-catenin signaling [1] is listed as “induce a subset of barrier properties”. In addition, the “enhancement of the effect of cAMP+Ro on barrier integrity (impedance)” value in data set [5] (added to cAMP+Ro) is “did not enhance”.
On to “methyl-β-cyclodextrin [methyl-p-cyclodextrin]”, for which the “inhibition of albumin internalization (lipid raft/caveolin-mediated endocytosis)” value in [6] was “sensitive”.
On to `Cc1cccc(-c2nn(C(=S)Nc3ccccc3)cc2-c2ccnc3ccccc23)n1` [A83-01, 3-(6-Methyl-2-pyridinyl)-N-phenyl-4-(4-quinolinyl)-1H-pyrazole-1-carbothioamide], for which, in the data set on stem cell-derived ECs, the junctional tightness entry is listed as “elevate junctional tightness”. Further, the “enhancement of the effect of cAMP+Ro on barrier integrity (impedance)” value in data set [5] is recorded as “did not enhance”.
For `Nc1c2c(nc3ccccc13)CCCC2` [Tacrine], in the data set on central nervous system, the BBB transport result was “Influx”. Besides, the “permeability … change on combination treatment” value in data set [4] is listed as “increased the permeability”.
For the molecule `COc1ccc2c(c1)c(CC(=O)O)c(C)n2C(=O)c1ccc(Cl)cc1` [Indomethacin], the BBB transport result in the data set on central nervous system is given as “Passive lipophilic”.
For `CCCCOc1cc(CC2CNC(=O)N2)ccc1OC` (stereo not shown) [Ro 20-1724, 4-(3-Butoxy-4-methoxybenzyl)imidazolidin-2-one], in [7], the “barrier integrity as normalized cell index, further increase over cAMP alone” value is reported as “further increases barrier integrity”. Also, the “resistance across EC monolayers” value in the data set with EC monolayers is “increase resistance across EC monolayers”.
For Methotrexate, the BBB transport entry in the data set on central nervous system is recorded as “Efflux”. Also, the “efflux ratio, change” value in data set [4] is “elevated”.
With `Cc1cccc(-c2[nH]ncc2-c2ccc3ncccc3n2)n1` [RepSox], in the data set on stem cell-derived ECs (stem cell-derived ECs, via claudin-5), the junctional tightness entry was “elevate junctional tightness”.
As for `Nc1nnc(-c2cccc(Cl)c2Cl)c(N)n1` [Lamotrigine], in the data set with central nervous system, the BBB transport result is reported as “Passive lipophilic”.
On to `O=C1[C@H](Cc2ccc(O)cc2)N2C(=O)CCN(C(=O)NCc3ccccc3)[C@H]2CN1Cc1cccc2ccccc12` [ICG-001], for which the “point of inhibition of Wnt signaling” value in the data set on Wnt/β-catenin signaling [2] is recorded as “specifically inhibits the β-catenin-CREB-binding protein (CBP) interaction in the nucleus”. In addition, in the data set with Wnt/β-catenin signaling [3], the “interference with basal barrier integrity” value was “do not interfere with basal barrier integrity” and the “reduction of the effect of cAMP+Ro+LiCl+A83-01 on barrier integrity (impedance)” value is on record as “moderately”.
Turning to `C=C[C@@]1(C)CC(=O)[C@]2(O)[C@@]3(C)[C@@H](O)CCC(C)(C)[C@@H]3[C@H](O)[C@H](OC(C)=O)[C@@]2(C)O1` [forskolin], the “resistance across EC monolayers” value in the data set on EC monolayers was “increase resistance across EC monolayers”.
Turning to `CC[C@]1(O)C[C@@H]2CN(CCc3c([nH]c4ccccc34)[C@@](C(=O)OC)(c3cc4c(cc3OC)N(C)[C@H]3[C@@](O)(C(=O)OC)[C@H](OC(C)=O)[C@]5(CC)C=CCN6CC[C@]43[C@@H]65)C2)C1` [Vinblastine], the BBB transport result with central nervous system was “Efflux”. In [4], the “efflux ratio, change” value is on record as “trend” and the “permeability … change on combination treatment” value is “lower permeability”.
Regarding `O=C(O)c1ccccc1O` [Salicylic acid], the BBB transport entry with central nervous system is recorded as “Efflux, influx”. In addition, the “permeability … change on combination treatment” value in [4] is on record as “lower permeability”.
Turning to `O=C1Nc2cc(Br)ccc2C1=C1Nc2ccccc2C1=NO` [6-BIO, 6-bromoindirubin-3-oxim], the “induction of barrier properties” value in the data set on Wnt/β-catenin signaling [1] is recorded as “induce a subset of barrier properties”.
For `CC(C)NCC(O)COc1cccc2ccccc12` (stereo not shown) [Propranolol], in the data set with central nervous system, the BBB transport entry is “Passive lipophilic”. For the same molecule, the “permeability … change on combination treatment” value in [4] is given as “increased the permeability”.

B1: Wnt-3a: recombinant human Wnt-3a protein (protein, UniProt P56704 19-352, looked up)
Protein Wnt-3a: SYPIWWSLAVGPQYSSLGSQPILCASIPGLVPKQLRFCRNYVEIMPSVAEGIKIGIQECQHQFRGRRWNCTTVHDSLAIFGPVLDKATRESAFVHAIASAGVAFAVTRSCAEGTAAICGCSSRHQGSPGKGWKWGGCSEDIEFGGMVSREFADARENRPDARSAMNRHNNEAGRQAIASHMHLKCKCHGLSGSCEVKTCWWSQPDFRAIGDFLKDKYDSASEMVVEKHRESRGWVETLRPRYTYFKVPTERDLVYYEASPNFCEPNPETGSFGTRDRTCNVSSHGIDGCDLLCCGRGHNARAERRREKCRCVFHWCCYVSCQECTRVYDVHTCK
In the case of B1, the “induction of barrier properties” value in the data set with Wnt/β-catenin signaling [1] is “induce a subset of barrier properties”.
